The test system of series [1] is Du145. Kind of series: Cytotoxicity assay Du145. In kind it is cell-based. Particulars: Homo sapiens, DU-145, HU Prostate, read-out: IC50 (SE) growth inhibition. As to the method:
(§1) Multi-plex cytotoxicity assays were performed by the Keck-UWCCC Small Molecule Screening Facility (Madison, Wis.). Specific methodology can be found online at http://hts.wisc.edu/Resources.htm#mpa.

Series [2] relates to HCT-45. In words: Cytotoxicity assay HCT-45. The class given is cell-based. The settings on record: Homo sapiens, HU Colorectal, read-out: IC50 (SE) growth inhibition. On the procedure:
as §1

Series [3] relates to SF268. In words: Cytotoxicity assay SF268. The class given is cell-based. The settings on record: Homo sapiens, SF-268, HU CNS, read-out: IC50 (SE) growth inhibition. On the procedure: as §1
The test system of series [4] is MCF7. In words: Cytotoxicity assay MCF7. In kind it is cell-based. Particulars: Homo sapiens, HU Breast, read-out: IC50 (SE) growth inhibition. On the procedure:
as §1

Series [5] concerns HI299. Kind of series: Cytotoxicity assay HI299. In kind it is cell-based. The settings on record: Homo sapiens, HU Lung, read-out: IC50 (SE) growth inhibition. On the procedure: as §1
Series [6] relates to MB-MDA-231. Kind of series: Cytotoxicity assay MB-MDA-231. In kind it is cell-based. Particulars: Homo sapiens, HU Breast, read-out: IC50 (SE) growth inhibition. As to the method: as §1
The target in series [7] is T1, sigma-2 receptor (Rattus norvegicus, UniProt Q5U3Y7).
T1 sequence (Q5U3Y7 1-176): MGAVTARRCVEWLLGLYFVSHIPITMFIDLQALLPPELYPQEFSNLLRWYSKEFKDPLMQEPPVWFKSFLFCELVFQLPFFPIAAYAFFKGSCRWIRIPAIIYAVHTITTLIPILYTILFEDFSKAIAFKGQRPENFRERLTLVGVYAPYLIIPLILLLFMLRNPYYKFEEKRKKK
Set-up: from tissue; host or cells: rat liver membranes. Particulars: from Fontanilla et al. Biochemistry 2008; cited from earlier work.

Series [8] has as its target T2, sigma-1 receptor (Cavia porcellus, UniProt Q60492). Set-up: from tissue; host or cells: guinea pig liver membranes. The settings on record: from Fontanilla et al. Biochemistry 2008; cited from earlier work.
Series [9] deals with SKOV-3. Kind of series: Cytotoxicity assay SKOV-3. The class given is cell-based. The settings on record: Homo sapiens, SK-OV-3, HU Ovarian, read-out: IC50 (SE) growth inhibition. As to the method:
as §1

Series [10] has as its system MCP10A. Kind of series: Cytotoxicity assay MCP10A. Particulars: Homo sapiens, HU Breast, read-out: IC50 (SE) growth inhibition. In kind it is cell-based. As to the method:
as §1

Series [11] has as its system tumor cell lines. In words: Cytotoxicity assays, various tumor cell lines (statements in words). The class given is cell-based, human. As to the method:
Because sigma-1 receptors are overexpressed in numerous tumor cell lines, which include breast cancer, lung carcinoma, renal carcinoma, colon carcinoma, sarcoma, brain tumors, melanoma, glioblastoma, neuroblastoma, and prostate cancer, the ability of the compounds to inhibit the growth of various tumor cell lines were tested.
as §1

Series [12] has as its system HT-29. In words: Cytotoxicity assay HT-29. Particulars: Homo sapiens, HU Colorectal, read-out: IC50 (SE) growth inhibition. The class given is cell-based. On the procedure:
as §1

Series [13] has as its system A549. In words: Cytotoxicity assay A549. The class given is cell-based. Particulars: Homo sapiens, HU lung, read-out: IC50 (SE) growth inhibition. As to the method: as §1
Series [14] has as its system NCI-H460. In words: Cytotoxicity assay NCI-H460. The class given is cell-based. The settings on record: Homo sapiens, HU lung, read-out: IC50 (SE) growth inhibition. On the procedure: as §1
Series [15] deals with T3, sigma-1 receptor (Rattus norvegicus, UniProt Q9R0C9).
T3 construct: from tissue; host or cells: rat liver membranes
In words: Protection of [125I]-IACoc photolabeling in rat liver membranes. The class given is binding.
Procedure: (§5) Rat liver membranes (100 μg/lane) were suspended in the presence or absence of the protecting drugs. […] Percent band intensities are shown compared to controls performed in the absence of protecting ligand (−).

For series [16], the system named is WT and sigma-1 receptor knockout mice. In words: Open-field hypermobility assay in WT and sigma-1 receptor KO mice. In kind it is in vivo, mouse. Particulars: 2 mg/kg i.p. two hours after pargyline 75 mg/kg i.p.
Procedure: All mice were maintained on a normal light/dark cycle and handled in accordance with Animal Care and Use Guidelines of the University of Wisconsin, Madison. […] Mice were first acclimatized to the experimental room for one hour. WT and KO mice were injected with the monoamine oxidase inhibitor, pargyline (75 mg/kg, i.p.) two hours prior to DMT or vehicle injection(28). […] Each condition represents 8 to 14 mice (n=8-14). […] A computer program was used to quantitate movement and after each experiment, 70% ethanol was used to remove odors from the open-field.
In series [17] the test system is INa in neonatal mouse cardiac myocytes. In words: Patch clamp INa in neonatal cardiac myocytes from WT and sigma-1 receptor KO mice. Particulars: n=7. In kind it is cell-based. As to the method: Neonatal mouse cardiac myocytes were enzymatically isolated and cultured on laminin-coated glass coverslips as previously described (33, 34) with minor changes (26).
(§2) INa was recorded using whole-cell patch clamp at room temperature. All patch clamp solutions used as well as patch clamp methodology and instrumentation details are previously described (26) with the exception of testing INa inhibition with 100 μM DMT.
For orientation: In patch-clamp work, channel activity is measured electrically.

The test system of series [18] is human cardiac Na+ channel hNav1.5. Kind of series: Patch clamp INa in HEK293 cells stably expressing hNav1.5. The class given is cell-based. The settings on record: 100 μM, n=3. On the procedure:
(§3) To evaluate the capacity of DMT to induce physiological responses by binding to sigma receptors, the action of DMT on voltage-activated Na^+ current was examined. […] Application of 100 μM DMT inhibited INa by 62±3% (n=3), which reversed upon DMT removal. With hNav1.5 transiently transfected into COS-7 cells, 100 μM DMT inhibited INa by only 22±4% (n=3), but photolabeling has shown that these cells have much lower levels of endogenous sigma-1 receptor compared to HEK293 cells (26) (FIG. 7b).
(§4) HEK293 cells stably expressing hNav1.5 were provided by Dr. J. C. Makielski at the University of Wisconsin-Madison (32). COS-7 cells were transiently transfected with recombinant cDNA encoding hNav1.5 using Lipofectamine. Both cell types were cultured on glass coverslips at 37° C. in 5% CO2/air atmosphere, and used for electrophysiological recordings within 3-5 days.
as §2

The subject of series [19] is hNav1.5. In words: Patch clamp INa in COS-7 cells transiently transfected with hNav1.5. The settings on record: 100 μM, n=3. In kind it is cell-based, human. On the procedure:
as §3, §4, §2

Series [20] deals with T3, sigma-1 receptor. In words: Protection of [125I]IAF photolabeling of the sigma-1 receptor in rat liver membranes. The class given is binding.
Procedure: as §5
Series [21] deals with T2, sigma-1 receptor. Kind of series: Affinity for the sigma-1 receptor (Table 3). In kind it is binding. Details: from tissue.
Series [22] deals with sigma-1 receptor (Homo sapiens, UniProt Q99720). The settings on record: literature value; cited from earlier work.
Series [23] addresses sigma-2 receptor (Homo sapiens, UniProt Q5BJF2). Particulars: literature value; cited from earlier work.

Read-outs that look alike come from different tables or passages of the source. Marks after values point to notes of the source that are not given here.

T3 sequence (Q9R0C9 whole entry): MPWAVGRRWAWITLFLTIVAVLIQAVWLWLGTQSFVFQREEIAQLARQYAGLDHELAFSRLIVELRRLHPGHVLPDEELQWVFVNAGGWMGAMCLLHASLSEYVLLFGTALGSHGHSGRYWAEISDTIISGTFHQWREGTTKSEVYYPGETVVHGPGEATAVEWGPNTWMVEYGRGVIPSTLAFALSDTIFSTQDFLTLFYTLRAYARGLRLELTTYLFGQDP
T2 sequence (Q60492 whole entry): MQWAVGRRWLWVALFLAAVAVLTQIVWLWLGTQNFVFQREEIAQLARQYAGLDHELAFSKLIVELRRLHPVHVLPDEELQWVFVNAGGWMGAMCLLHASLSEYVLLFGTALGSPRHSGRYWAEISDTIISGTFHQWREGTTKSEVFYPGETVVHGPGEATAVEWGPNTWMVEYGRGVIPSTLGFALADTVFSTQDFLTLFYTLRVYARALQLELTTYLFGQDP
Chain of sigma-1 receptor (Homo sapiens, UniProt Q99720) (Q99720 whole entry, species assumed): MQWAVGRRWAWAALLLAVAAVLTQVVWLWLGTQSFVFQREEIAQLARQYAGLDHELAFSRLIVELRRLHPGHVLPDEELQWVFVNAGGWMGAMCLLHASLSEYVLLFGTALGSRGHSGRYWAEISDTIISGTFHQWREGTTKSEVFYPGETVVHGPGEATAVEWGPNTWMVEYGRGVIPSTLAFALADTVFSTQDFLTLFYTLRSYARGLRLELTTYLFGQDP
Chain of sigma-2 receptor (Homo sapiens, UniProt Q5BJF2) (Q5BJF2 whole entry, species assumed): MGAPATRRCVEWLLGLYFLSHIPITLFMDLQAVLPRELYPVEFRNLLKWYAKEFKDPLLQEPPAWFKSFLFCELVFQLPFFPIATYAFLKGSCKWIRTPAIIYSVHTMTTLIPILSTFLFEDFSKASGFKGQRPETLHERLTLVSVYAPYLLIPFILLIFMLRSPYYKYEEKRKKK

For the molecule `CCCN(CCCc1ccc(F)cc1)CCc1ccc(N=[N+]=[N-])c(I)c1` [Compound 19], the IC50 in series [1] amounted to 13.1 µM; in [2], 54.1 µM; in series [3], 38.8 µM; in series [4] it was 16.8 µM; in series [5], 90.8 µM; in series [6], 21.6 µM. The IC50 is over 100 µM in series [9]; 86.6 µM in series [10]; 36.4 µM in [12]; over 100 µM in [13]; 40.3 µM in series [14]. Further, the results for the Kd in series [7] and in series [8] were 1.29 µM and 7.24 µM, respectively. In addition, the “Ratio (σ2/σ1)” value in series [8] is on record as 0.178^c. In addition, the “cytotoxicity / tumor cell growth inhibition” value in [11] was “non-specifically cytotoxic in almost all the cell lines tested”.
For the molecule `CCCN(CCCc1ccc(F)cc1)CCc1ccc(N)cc1` [Compound 20, N-propyl-N-(4-aminophenyl-ethyl)-3-(4-fluorophenyl)propylamine], the IC50 was over 100 µM in series [1]; over 100 µM in series [2]; over 100 µM in series [3]; 41.3 µM in series [4]; over 100 µM in [5]; 86.1 µM in series [6]. The IC50 in series [9] was 20.2 µM; in series [10], over 100 µM; in [12], over 100 µM; in series [13], over 100 µM; in series [14], 44.8 µM. Moreover, the values for the Kd in [7] and in [8] were 0.12 µM and 2.59 µM, respectively. The “Ratio (σ2/σ1)” value in series [8] was 0.046^c.
`CN(C)CCc1c[nH]c2ccccc12` [DMT, 2-(1H-indol-3-yl)-N,N-dimethylethylamine]: the “protection of [125I]-IACoc photolabeling of the 26 kDa sigma-1 receptor” value is 61% in [15] (50 μM) and about 100% in series [15] (100 μM). Also, the “distance traveled in open-field assay (hypermobility)” value in series [16] (WT mice) is recorded as 7025±524.1 cm; in series [16] (sigma-1 receptor KO mice) it was 2328±322.9 cm. In addition, the inhibition (usually the percentage by which the read-out fell short of the control) at 100 µM in series [17] (KO myocytes) was 7 ± 2%; in [17] (WT neonatal cardiac myocytes) it was 29 ± 3%. Besides, the “inhibition of INa” value in [18] came out at 62±3%; in [19], 22±4%. Besides, the “protection of [125I]IAF photolabeling of the sigma-1 receptor” value in series [20] (10 μM) is given as 31%; in [20] (50 μM) it was 43%; in series [20] (100 μM), 69%. In addition, in series [21], the dissociation constant (Kd) – broadly, the equilibrium constant for the complex coming apart – was 14.6 µM.
On to `COC(=O)C1C(OC(=O)c2ccc(N=[N+]=[N-])c(I)c2)CC2CCC1N2C` (centres unmarked) [[^125I]-IACoc, 3-[^125I]iodo-4-azidococaine], for which the dissociation constant Kd in series [22] is 0.000126 µM.
With `CC1CN(CCCc2ccc(N=[N+]=[N-])c([125I])c2)CC(C)O1` (centres unmarked) [[^125I]IAF, 1-N-(2′,6′-dimethyl-morpholino)-3-(4-azido-3-[^125I]iodo-phenyl)propane], the results for the Kd in [23] and in series [22] were 2.78 µM and 0.194 µM, respectively.

The values are drawn from patent US8946302B2, “Selective sigma-1 receptor ligands” (Wisconsin Alumni Research Foundation, priority 2008, dated 2015).
